Laboratory results: the supplement of paper PMC5662764
± gives the standard deviation of the averaged measurements.

How the values were obtained:
Assay in all cases: normalised growth rate inhibition (GR value) relative to DMSO control (GR (1 = untreated growth, 0 = cytostasis, <0 = cytotoxic)); higher = less growth inhibition
Conditions in all cases: 72 h
SKBR3 = test system: SKBR3
Description: (§1)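 Breast cancer cell lines (BT-20, Hs 578T, MCF 10A, MCF7, MDA-MB-231, SK-BR-3) were plated in 384-well plates and treated 24 h later with drugs at six concentrations (0.04-10 µM). Viable cells were counted by Hoechst/dead-cell-stain imaging at 0 and 72 h. Counts were normalised to DMSO controls on the same plate to give the relative cell count and the growth-rate inhibition (GR) value; technical plate triplicates were averaged for each biological replicate.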

MDAMB231 = test system: MDAMB231
Description: as §1

MCF7 = test system: MCF7
Description: as §1

MCF10A = test system: MCF10A
Description: as §1

HS578T = test system: HS578T
Description: as §1

BT20 = test system: BT20
Description: as §1

Row | Structure (SMILES) | normalised growth rate inhibition (SKBR3; 0.04 µM) | normalised growth rate inhibition (SKBR3; 0.12 µM) | normalised growth rate inhibition (SKBR3; 0.37 µM) | normalised growth rate inhibition (SKBR3; 1.11 µM) | normalised growth rate inhibition (SKBR3; 3.33 µM) | normalised growth rate inhibition (SKBR3; 10 µM) | normalised growth rate inhibition (MDAMB231; 0.04 µM) | normalised growth rate inhibition (MDAMB231; 0.12 µM) | normalised growth rate inhibition (MDAMB231; 0.37 µM) | normalised growth rate inhibition (MDAMB231; 1.11 µM) | normalised growth rate inhibition (MDAMB231; 3.33 µM) | normalised growth rate inhibition (MDAMB231; 10 µM) | normalised growth rate inhibition (MCF7; 0.04 µM) | normalised growth rate inhibition (MCF7; 0.12 µM) | normalised growth rate inhibition (MCF7; 0.37 µM) | normalised growth rate inhibition (MCF7; 1.11 µM) | normalised growth rate inhibition (MCF7; 3.33 µM) | normalised growth rate inhibition (MCF7; 10 µM) | normalised growth rate inhibition (MCF10A; 0.04 µM) | normalised growth rate inhibition (MCF10A; 0.12 µM) | normalised growth rate inhibition (MCF10A; 0.37 µM) | normalised growth rate inhibition (MCF10A; 1.11 µM) | normalised growth rate inhibition (MCF10A; 3.33 µM) | normalised growth rate inhibition (MCF10A; 10 µM) | normalised growth rate inhibition (HS578T; 0.04 µM) | normalised growth rate inhibition (HS578T; 0.12 µM) | normalised growth rate inhibition (HS578T; 0.37 µM) | normalised growth rate inhibition (HS578T; 1.11 µM) | normalised growth rate inhibition (HS578T; 3.33 µM) | normalised growth rate inhibition (HS578T; 10 µM) | normalised growth rate inhibition (BT20; 0.04 µM) | normalised growth rate inhibition (BT20; 0.12 µM) | normalised growth rate inhibition (BT20; 0.37 µM) | normalised growth rate inhibition (BT20; 1.11 µM) | normalised growth rate inhibition (BT20; 3.33 µM) | normalised growth rate inhibition (BT20; 10 µM)
1 | CC(C)(C)c1cnc(CSc2cnc(NC(=O)C3CCNCC3)s2)o1 | 0.464 ± 0.18 | -0.223 ± 0.15 | -0.312 ± 0.17 | -0.332 ± 0.17 | -0.343 ± 0.21 | -0.367 ± 0.21 | 0.314 ± 0.11 | -0.201 ± 0.17 | -0.24 ± 0.17 | -0.23 ± 0.15 | -0.203 ± 0.18 | -0.201 ± 0.14 | -0.0791 ± 0.16 | -0.295 ± 0.04 | -0.329 ± 0.061 | -0.326 ± 0.058 | -0.34 ± 0.063 | -0.354 ± 0.083 | 0.921 ± 0.093 | 0.0575 ± 0.011 | -0.186 ± 0.2 | -0.256 ± 0.23 | -0.261 ± 0.23 | -0.254 ± 0.19 | 0.786 ± 0.044 | -0.123 ± 0.12 | -0.146 ± 0.094 | -0.155 ± 0.12 | -0.137 ± 0.095 | -0.148 ± 0.11 | 0.885 ± 0.061 | 0.134 ± 0.27 | -0.239 ± 0.067 | -0.323 ± 0.17 | -0.33 ± 0.19 | -0.299 ± 0.2
2 | CC(C)CC(=O)Nc1n[nH]c2c1CN(C(=O)C1CCN(C)CC1)C2(C)C | 0.145 ± 0.15 | 0.0952 ± 0.085 | 0.0136 ± 0.079 | -0.0334 ± 0.073 | -0.0738 ± 0.074 | -0.305 ± 0.21 | 0.304 ± 0.16 | 0.211 ± 0.072 | 0.0329 ± 0.056 | -0.0471 ± 0.091 | -0.13 ± 0.13 | -0.262 ± 0.2 | 0.207 ± 0.15 | 0.143 ± 0.1 | 0.0348 ± 0.063 | -0.0125 ± 0.053 | -0.102 ± 0.12 | -0.328 ± 0.029 | 0.322 ± 0.09 | 0.228 ± 0.053 | 0.116 ± 0.063 | 0.0382 ± 0.073 | -0.0512 ± 0.066 | -0.187 ± 0.19 | 0.497 ± 0.057 | 0.427 ± 0.073 | 0.227 ± 0.11 | 0.0474 ± 0.12 | -0.035 ± 0.096 | -0.157 ± 0.11 | 0.52 ± 0.085 | 0.436 ± 0.047 | 0.276 ± 0.097 | 0.109 ± 0.12 | -0.0127 ± 0.079 | -0.219 ± 0.12
3 | CCN(CC)CCCCNc1ncc2cc(-c3cc(OC)cc(OC)c3)c(NC(=O)NC(C)(C)C)nc2n1 | 1.14 ± 0.12 | 1.12 ± 0.13 | 1.08 ± 0.085 | 1.13 ± 0.12 | 1.12 ± 0.11 | 0.209 ± 0.2 | 1.08 ± 0.053 | 1.07 ± 0.032 | 1.08 ± 0.079 | 1.07 ± 0.054 | 1.04 ± 0.018 | 0.0514 ± 0.23 | 1.1 ± 0.066 | 1.08 ± 0.029 | 1.04 ± 0.078 | 1.1 ± 0.066 | 1.1 ± 0.12 | 0.572 ± 0.16 | 1.022 ± 0.0032 | 1.005 ± 0.0025 | 0.9981 ± 0.0038 | 0.9929 ± 0.0079 | 0.984 ± 0.016 | 0.644 ± 0.15 | 0.852 ± 0.074 | 0.824 ± 0.083 | 0.835 ± 0.074 | 0.846 ± 0.061 | 0.809 ± 0.071 | 0.164 ± 0.14 | 1.1 ± 0.039 | 1.08 ± 0.058 | 1.09 ± 0.056 | 1.14 ± 0.066 | 1.16 ± 0.049 | 0.853 ± 0.18
4 | CCc1cc(Nc2nccc(-c3c(-c4ccc(OC)c(C(=O)Nc5c(F)cccc5F)c4)nc4ccccn34)n2)c(OC)cc1N1CCC(N2CCN(S(C)(=O)=O)CC2)CC1 | 0.701 ± 0.094 | 0.841 ± 0.045 | 0.98 ± 0.02 | 0.986 ± 0.057 | 1.04 ± 0.023 | 1.05 ± 0.027 | 0.813 ± 0.093 | 0.864 ± 0.045 | 0.893 ± 0.027 | 0.9 ± 0.011 | 0.971 ± 0.02 | 0.939 ± 0.024 | 0.473 ± 0.16 | 0.418 ± 0.17 | 0.404 ± 0.092 | 0.363 ± 0.081 | 0.358 ± 0.069 | 0.319 ± 0.091 | 0.719 ± 0.2 | 0.699 ± 0.19 | 0.656 ± 0.22 | 0.608 ± 0.23 | 0.621 ± 0.23 | 0.634 ± 0.18 | 0.96 ± 0.025 | 0.958 ± 0.013 | 0.965 ± 0.017 | 0.931 ± 0.024 | 0.951 ± 0.032 | 0.955 ± 0.023 | 0.821 ± 0.056 | 0.902 ± 0.036 | 0.916 ± 0.017 | 0.937 ± 0.042 | 0.961 ± 0.029 | 0.999 ± 0.043
5 | CN(c1ncccc1CNc1nc(Nc2ccc3c(c2)CC(=O)N3)ncc1C(F)(F)F)S(C)(=O)=O | 1.05 ± 0.051 | 0.984 ± 0.095 | 0.704 ± 0.099 | 0.198 ± 0.053 | -0.0632 ± 0.084 | -0.254 ± 0.25 | 0.897 ± 0.027 | 0.825 ± 0.081 | 0.741 ± 0.075 | 0.577 ± 0.14 | 0.166 ± 0.14 | -0.196 ± 0.22 | 0.8557 ± 0.0043 | 0.759 ± 0.054 | 0.529 ± 0.066 | 0.251 ± 0.094 | -0.0743 ± 0.044 | -0.309 ± 0.069 | 0.894 ± 0.02 | 0.814 ± 0.017 | 0.66 ± 0.014 | 0.4 ± 0.098 | 0.0782 ± 0.016 | -0.191 ± 0.2 | 0.897 ± 0.02 | 0.812 ± 0.035 | 0.735 ± 0.034 | 0.62 ± 0.042 | 0.438 ± 0.048 | -0.0953 ± 0.11 | 0.921 ± 0.011 | 0.879 ± 0.031 | 0.815 ± 0.069 | 0.583 ± 0.13 | 0.201 ± 0.15 | -0.212 ± 0.071
6 | CNC(=O)Nc1ccc(-c2nc(N3CC4CCC(C3)O4)c3cnn(C4CCC5(CC4)OCCO5)c3n2)cc1 | 0.0703 ± 0.093 | 0.000862 ± 0.13 | -0.00643 ± 0.17 | -0.00784 ± 0.15 | -0.0626 ± 0.15 | -0.0635 ± 0.14 | 0.499 ± 0.16 | 0.369 ± 0.18 | 0.301 ± 0.15 | 0.285 ± 0.12 | 0.23 ± 0.12 | 0.0984 ± 0.14 | 0.16 ± 0.091 | 0.14 ± 0.1 | 0.13 ± 0.069 | 0.149 ± 0.1 | 0.0933 ± 0.1 | -0.00137 ± 0.14 | 0.506 ± 0.15 | 0.284 ± 0.064 | 0.224 ± 0.057 | 0.176 ± 0.017 | 0.151 ± 0.042 | 0.14 ± 0.026 | 0.268 ± 0.079 | 0.212 ± 0.066 | 0.198 ± 0.091 | 0.172 ± 0.096 | 0.177 ± 0.093 | 0.101 ± 0.15 | 0.473 ± 0.17 | 0.269 ± 0.11 | 0.208 ± 0.084 | 0.15 ± 0.064 | 0.113 ± 0.075 | 0.0435 ± 0.086
